Data set [1] is described as follows: acute toxicity (single oral administration to mice). Conditions: mouse, in vivo, read-out: Toxicity, LD 50. From the text:
In the following Table there are given for a series of representative compounds of formula I the results of the testing with respect to their anti-ulcer activity and to their gastric secretion-inhibiting activity. Moreover, this Table contains data concerning the acute toxicity (LD50 in the case of single oral administration to mice).

The subject of data set [2] is indomethacin-induced lesions of the stomach. The data set is described as follows: anti-ulcer activity (indomethacin-induced lesions of the stomach). Format: in vivo. To be noted: Rattus norvegicus, po, read-out: Anti-ulcer, ED50. The procedure: The experimental procedure described hereinafter was used to determine the anti-ulcer activity:
Groups each comprising 8 male rats with a body weight of 130-150 g are used for each dosage of a test substance. Before the beginning of the experiment the animals receive no food for 24 hours, but receive water ad libitum. Various dosages of the substances to be tested (suspended in 0.5% tragacanth) or the vehicle alone (controls) are administered twice perorally, namely 1 hour before and 2 hours after the peroral administration of 20 mg/kg of indomethacin. […] The animals are killed 6 hours after the first administration of the substanoe under investigation (or of the vehicle alone). The rats which remain protected from the occurrence of macroscopically visible lesions to the mucous membrane of the stomach are counted.

Data set [3] concerns gastric acid secretion stimulated by 4-methylhistamine. Description: gastric acid secretion-inhibiting activity (Heidenhain type pouch, 4-methylhistamine stimulated). Format: in vivo, beagle hounds (dog). Conditions: Canis lupus familiaris, read-out: Gastric acid secretion-inhibition, ED50. The procedure:
The experimental procedure described hereinafter was used to determine the gastric acid secretion-inhibiting activity:
In the pouch there is fitted a steel cannula which is conducted externally through the abdominal wall. Before each experiment the animals receive no food for 18 hours, but receive water ad libitum. They are conscious and standing during the experiment and their gastric acid secretion is stimulated by the intravenous infusion of 4-methylhistamine, a selective agonist of the histamine H2 -receptors. The gastric acid production is determined in 15 minute fractions of the stomach pouch juioe. As soon as the gastric acid production has a constant value, the substances to be tested are administered orally as a dry powder filled into gelatine capsules.

Setting [4] is: male rats, p.o. twice, 1 h before and 2 h after 20 mg/kg indomethacin p.o., 50% of animals protected from lesions.
The mark [5] stands for this setting: conscious beagle hounds, Heidenhain type pouch, 4-methylhistamine i.v. infusion, oral dry powder in gelatine capsules, 50% inhibition.

Each structure is given as a SMILES string. Read-outs that look alike come from different tables or passages of the source.

Usually ED50 stands for the dose at which the effect has come halfway, by size or by number of responders. In the case of `CCCCCCSSCc1c(C)c(OC)cc[n+]1-c1nc2ccc(C(F)(F)F)cc2[nH]1.[Cl-]` [D, 2-[(Hexyldithio)methyl]-4-methoxy-3-methyl-1-[5-(trifluoromethyl) -2-benzimidazolyl]pyridinium chloride], the LD50 in data set [1] is more than 5000 mg/kg. For the same molecule, the ED50 is 1.9 mg/kg in data set [2] (setting [4]) and 6.8 mg/kg in data set [3] (setting [5]).

Regarding `COc1cc[n+](-c2nc3cc4c(cc3[n-]2)C(C)(C)C(=O)C4(C)C)c(CSSCCN(C)C)c1C` [N], the values for the ED50 in data set [2] and in data set [3] (po) were 1.5 mg/kg and 3.7 mg/kg, respectively.

In the case of `COc1cc[n+](-c2nc3cc(C(F)(F)F)ccc3[nH]2)c(CSSC[C@H](NC(=O)CC[C@H](N)C(=O)O)C(=O)NCC(=O)O)c1C` [C, 2-[[[(R)-2-[(S)-4-Amino-4-carboxybutyramido]-2-[(carboxymethyl)carbamoyl]ethyl]dithio]methyl]-4-methoxy-3-methyl-1-[(5-trifluoromethyl)-2-benzimidazolyl]pyridinium chloride], the LD50 in data set [1] is 1250 to 2500 mg/kg. For the same molecule, the ED50 in data set [2] (setting [4]) and in data set [3] (setting [5]) was 3 mg/kg each time.

`CCCSSCc1c(C)c(OC)cc[n+]1-c1nc2ccc(C(F)(F)F)cc2[nH]1.[Cl-]` [A, 2-[(propyldithio)methyl]-4-methoxy-3-methyl-1-[5-(trifluoromethyl)-2-benzimidazolyl]pyridinium chloride]: in data set [1], the LD50 is more than 5000 mg/kg. Also, the ED50 in data set [2] (setting [4]) stood at 1.2 mg/kg; in data set [3] (setting [5]), 1.5 mg/kg.

Regarding `COc1cc[n+](-c2nc3cc4c(cc3[nH]2)C(C)(C)C(=O)C4(C)C)c(CSSCCO)c1C.[Cl-]` [O, 2-[[(2-Hydroxyethyl)dithio]methyl]-4-methoxy-3-methyl-1-(1,5,6,7-tetrahydro-5,5,7,7-tetramethyl-6-oxoindeno[5,6-d]imidazol-2-yl)pyridinium chloride], in data set [1], the LD50 is 312 to 625 mg/kg. The ED50 in data set [2] (setting [4]) was determined as 2.3 mg/kg; in data set [3] (setting [5]), 2.9 mg/kg.

Consider `CCOC(=O)CC(SSCc1c(C)c(OC)cc[n+]1-c1nc2ccc(C(F)(F)F)cc2[nH]1)C(=O)OCC.[Cl-]` (centres unmarked) [J, 2-[[[1,2-Bis-(ethoxycarbonyl)ethyl]dithio]methyl]-4-methoxy-3-methyl-1-[5-(trifluoromethyl)-2-benzimidazolyl]pyridinium chloride], for which the LD50 in data set [1] lay within 1250 to 2500 mg/kg. Besides, the ED50 in data set [2] (setting [4]) turned out to be 2.4 mg/kg; in data set [3] (setting [5]), 2.2 mg/kg.

In the case of `COc1cc[n+](-c2nc3cc4c(cc3[nH]2)C(C)(C)C(=O)C4(C)C)c(CSSC[C@H](N)C(=O)O)c1C.[Cl-]` [I, 2-[[[(R)-2-Amino-2-carboxyethyl]dithio]methyl]-4-methoxy-3-methyl-1-(1,5,6,7-tetrahydro-5,5,7,7-tetramethyl-6-oxoindeno[5,6-d]imidazol-2-yl)pyridinium chloride], the LD50 in data set [1] fell in the range of 312 to 625 mg/kg. The results for the ED50 in data set [2] (setting [4]) and in data set [3] (setting [5]) were 2.3 mg/kg and 3.9 mg/kg, respectively.

`CCCSSCc1c(C)c(OC)cc[n+]1-c1nc2cc3c(cc2[nH]1)C(C)(C)C(=O)C3(C)C.[Cl-]` [L, 4-Methoxy-3-methyl-2-[(propyldithio)methyl]-1-(1,5,6,7-tetrahydro-5,5,7,7-tetramethyl-6-oxoindeno[5,6-d]-imidazol-2-yl)pyridinium chloride]: in data set [1], the LD50 lay in the range of 312 to 625 mg/kg. In addition, the ED50 in data set [2] (setting [4]) is 1.6 mg/kg; in data set [3] (setting [5]), 3.4 mg/kg.

As to `COc1cc[n+](-c2nc3cc(C(F)(F)F)ccc3[nH]2)c(CSSCCN)c1C` [G, 2-[[(2-Aminoethyl)dithio]methyl]-4-methoxy-3-methyl-b 1-[5-(trifluoromethyl)-2-benzimidazolyl]pyridinium chloride], the LD50 in data set [1] lay in the range of 312 to 625 mg/kg. Also, the ED50 in data set [2] (setting [4]) is 2.3 mg/kg; in data set [3] (setting [5]), 1.5 mg/kg.

As for `CCSSCc1c(C)c(OC)cc[n+]1-c1nc2ccc(C(F)(F)F)cc2[nH]1.[Cl-]` [F, 2-[(Ethyldithio)methyl]-4-methoxy-3-methyl-1-[5-(trifluoromethyl)-2-benzimidazolyl]pyridinium chloride], in data set [1], the LD50 was 1250 to 2500 mg/kg. For the same molecule, the ED50 in data set [2] (setting [4]) came out at 1.7 mg/kg; in data set [3] (setting [5]), 1.6 mg/kg.

Regarding `COc1cc[n+](-c2nc3ccc(C(F)(F)F)cc3[nH]2)c(CSSC[C@H](N)C(=O)O)c1C.[Cl-]` [B, 2-[[[(R)-2-Amino-2-carboxyethyl]dithio]methyl]-4-methoxy-3-methyl-1-[5-(trifluoromethyl)-2-benzimidazolyl]pyridinium chloride], the LD50 in data set [1] was 1250 to 2500 mg/kg. In addition, the results for the ED50 in data set [2] (setting [4]) and in data set [3] (setting [5]) were 2.5 mg/kg and 2.8 mg/kg, respectively.

For `CCSSCc1c(C)c(OC)cc[n+]1-c1nc2cc3c(cc2[nH]1)C(C)(C)C(=O)C3(C)C.[Cl-]` [K, 2-[(Ethyldithio)methyl]-4-methoxy-3-methyl-1-(1,5,6,7-tetrahydro-5,5,7,7-tetramethyl-6-oxoindeno[5,6-d]-imidazol-2-yl)pyridinium chloride], the LD50 in data set [1] was in the range of 312 to 625 mg/kg. Also, the figures for the ED50 in data set [2] (setting [4]) and in data set [3] (setting [5]) were 2.3 mg/kg and 6.5 mg/kg, respectively.

Turning to `COc1cc[n+](-c2nc3ccc(C(F)(F)F)cc3[nH]2)c(CSSc2ccccc2Cl)c1C.[Cl-]` [E, 2-[[(o-Chlorophenyl)dithio]methyl]-4-methoxy-3-methyl-1-[5-(trifluoromethyl)-2-benzimidazolyl]pyridinium chloride], in data set [1], the LD50 is more than 5000 mg/kg. In addition, the ED50 in data set [2] (setting [4]) was 2.1 mg/kg; in data set [3] (setting [5]), 6 mg/kg.

As to `COc1cc[n+](-c2nc3cc4c(cc3[nH]2)C(C)(C)C(=O)C4(C)C)c(CSSc2cccc(Cl)c2)c1C` [H, 2-[[(m-Chlorophenyl)dithio]methyl]-4-methoxy-3-methyl-1-(1,5,6,7-tetrahydro-5,5,7,7-tetramethyl-6-oxoindeno[5,6d]imidazol-2-yl)pyridinium chloride], in data set [1], the LD50 is 1250 to 2500 mg/kg. Also, the 50% effective dose (ED50) in data set [2] (setting [4]) was found to be 1.8 mg/kg; in data set [3] (setting [5]) it was 6.2 mg/kg.

With `CCOC(=O)[C@@H](N)CSSCc1c(C)c(OC)cc[n+]1-c1nc2cc3c(cc2[nH]1)C(C)(C)C(=O)C3(C)C.[Cl-]` [M, 2-[[[(R)-2-Amino-2-(ethoxycarbonyl)ethyl]dithio]methyl]-4-methoxy-3-methyl-1-(1,5,6,7-tetrahydro-5,5,7,7-tetramethyl-6-oxoindeno[5,6-d]imidazol-2-yl)pyridinium chloride], the LD50 in data set [1] was in the range of 312 to 625 mg/kg. In addition, the ED50 stood at 1.6 mg/kg in data set [2] (setting [4]) and 4.6 mg/kg in data set [3] (setting [5]).

Consider `COc1cc[n+](-c2nc3cc4c(cc3[nH]2)C(C)(C)C(=O)C4(C)C)c(CSSCCC(N)C(=O)O)c1C.[Cl-]` (racemic) [P, 2-[[[(RS)-3-Amino-3-carboxypropyl]dithio]methyl]-4-methoxy-3-methyl-1-(1,5,6,7-tetrahydro-5,5,7,7-tetramethyl-6-oxoindeno[5,6-d]imidazol-2-yl)pyridinium chloride], for which the LD50 in data set [1] was in the range of 312 to 625 mg/kg. In addition, the ED50 in data set [2] (setting [4]) turned out to be 1.9 mg/kg; in data set [3] (setting [5]), 4.1 mg/kg.

With `COc1cc[n+](-c2nc3cc4c(cc3[nH]2)C(C)(C)C(=O)C4(C)C)c(CSSC2CCCC2)c1C.[Cl-]` [Q, 2-[(Cyclopentyldithio)methyl]-4-methoxy-3-methyl-1-(1,5,6,7-tetrahydro-5,5,7,7-tetramethyl-6-oxoindeno[5,6-d]imidazol-2-yl)pyridinium chloride], the LD50 in data set [1] was in the range of 312 to 625 mg/kg. The ED50 in data set [2] (setting [4]) is 1.6 mg/kg; in data set [3] (setting [5]) it was 4.9 mg/kg.

Source of the values: patent publication US4766133A, “(Bezimidazol-2-yl)-pyridinium compounds” (priority 1985, dated 1988).
